Results on 1 molecule are retold here after patent US20130217721A1, “COMPOSITIONS AND METHODS FOR DETECTION AND TREATMENT OF B-RAF INHIBITOR-RESISTANT MELANOMAS” (The Regents of the University of California, priority 2010, published 2013).

Several values for one entry are separate records, joined by “and”; a condition that tells them apart may be missing. Equal values may be shown once. Entries after “also recorded” stand apart in the source; their conditions may differ. Read-outs that look alike come from different tables or passages of the source.

One assay addresses B-RAF(V600E) kinase (Homo sapiens, UniProt P15056, V600E). Description: In vitro kinase assay of immunoprecipitated B-RAF. The class given is biochemical. The settings on record: from resistant sub-lines and short-term cultures compared with parental cell lines; 1 μM PLX4032, 30 min at 30° C. The source says:
Cells were harvested and protein lysates prepared in a NP40-based buffer before subjected to immunoprecipitation (IP). […] The beads were subsequently pelleted and the supernatant resuspended in sample buffer for western blotting to detect p-MEK and total MEK.

The target in a further assay is p61 BRAF(V600E) (Homo sapiens, UniProt P15056, DEL169-380/V600E). Description: ERK signaling in cells ectopically expressing p61 BRAF(V600E). The class given is cell-based. An excerpt:
(§1) FIGS. 6A-6E. […] FIG. 6A. PCR analysis of BRAF in cDNA from parental (P) and C3 cells. Primers were designed at the N-terminus and C-terminus of BRAF. […] Abbreviations: CR1: Conserved Region 1, CR2: Conserved Region 2, CR3: Conserved Region 3, RBD: RAS-binding domain, CRD: Cystine-Rich Domain, AS: Activation Segment, KD: Kinase Domain. FIG. 6B. Full length wild-type BRAF and the 1.7 kb/61 kd splice variant of BRAF(V600E) were cloned into a pcDNA3.1 vector with a FLAG tag at the C-terminus and expressed in 293H cells. The effect of PLX4032 (2 μM for 1 hour) on ERK signaling in the presence of p61 BRAF(V600E) was analyzed by western blot for pMEK and pERK. FIG. 6C. To compare levels of dimerization, 293H cells co-expressing FLAG tagged and V5-tagged p61 BRAF(V600E), full length BRAF(V600E) and the corresponding dimerization-deficient mutants p61 BRAF(V600E/R509H) and BRAF(V600E/R509H) were lysed followed by immunoprecipitation with FLAG antibody. Western blots with V5 or FLAG antibodies were performed as indicated. FIG. 6D. Comparison of MEK/ERK activation and sensitivity of ERK signaling to PLX4032 (2 μM for 1 hour) in 293H cells expressing either Flag-tagged BRAF(V600E) or the dimerization mutant Flag-tagged BRAF(V600E/R509H). FIG. 6E. Constructs expressing V5-tagged BRAF(V600E), p61 BRAF(V600E) or the dimerization mutant p61 BRAF(V600E/R509H) were transfected into 293H cells and treated with DMSO or 2 μM PLX4032 for 1 hour.
Plasmids/Trasfections. Flag-tagged BRAF constructs have been described previously^4. All other plasmids were created using standard cloning methods, with pcDNA3.1 (Invitrogen) as a vector. Mutations were introduced using the site-directed Mutagenesis Kit (Stratagene). For transfection studies, cells were seeded at 35 mm or 100 mm plates and transfected the following day using Lipofectamine 2000 (Invitrogen). Cells were collected 24 hours later for subsequent analysis.

Another assay concerns the target p61 BRAF(V600E/R509H) (Homo sapiens, UniProt P15056, DEL169-380/R509H/V600E). Nature of the assay: ERK signaling in 293H cells expressing p61 BRAF(V600E/R509H). In kind it is cell-based. The settings on record: 2 μM PLX4032 for 1 hour.
Source text: as §1, with “Constructs expressing V5-tagged BRAF(V600E), p61 BRAF(V600E) or the dimerization mutant p61 BRAF(V600E/R509H) were transfected into 293H cells and treated with DMSO or 2 μM PLX4032 for 1 hour.” left out

In a further assay the test system is melanoma tumors. Nature of the assay: Melanoma patients treated with vemurafenib (PLX4032): best response and PFS (Table 5). In kind it is in vivo, human. The settings on record: individual patient; patients 1-19 acquired resistance, 20-21 primary resistant.
The next assay relates to M395 R. Description: Cell survival assay (72 h). The class given is cell-based, human. The source says:
(§2) Cell culture, infections and drug treatments. Cells were maintained in DMEM with 10 or 20% fetal bovine serum and glutamine. shRNAs for B-RAF and C-RAF were sub-cloned into the lentiviral vector pLL3.7; pBabe B-RAF (V600E) was purchase (plasmid 17544, Addgene); viral supernatants generated by co-transfection with three packaging plasm ids into HEK293T cells; and infections carried out with protamine sulfate. Stocks and dilutions of PLX4032 (Plexxikon, Berkeley, Calif.) and AZD6244 (commercially available) were made in DMSO. Cells were quantified using CellTiter-GLO Luminescence (Promega) or crystal violet staining followed by NIH Image J quantification.

Assay [1] concerns M395 P over-expressing V600EB-RAF. Nature of the assay: Cell survival assay (72 h) with V600EB-RAF over-expression. The class given is cell-based, human. As for the experimental part: FIGS. 9A-9C. ^V600EB-RAF levels modulate melanoma sensitivity to vemurafenib. […] Dashed line, 50% inhibition. […] FIG. 9C, Increasing (in M395 P) or decreasing (in M395 R) BRAF^V600E levels decreased or increased pERK sensitivity to PLX4032 (0, 0.1, 1, 10 μM) treatments for 1 h, respectively.
as §2

Assay [2] relates to MAPK signalling (p-MEK1/2 and p-ERK1/2). The settings on record: PLX4032 0, 0.01, 0.1, 1 and 10 μM.
Method: FIG. 1A, Parental and PLX4032-resistant sub-lines were treated with increasing PLX4032 concentration (0, 0.01, 0.1, 1 and 10 μM), and the effects on MAPK signalling were determined by immunoblotting for p-MEK1/2 and p-ERK1/2 levels. Total MEK1/2, ERK1/2 and tubulin levels, loading controls.
Western blots were probed with antibodies against p-MEK1/2 (S217/221), MEK1/2, p-ERK1/2 (T202N204), ERK1/2, PDGFRβ, and EGFR (Cell Signaling Technologies), and N-RAS (Santa Cruz Biotechnology), pan-RAS (Thermo Scientific) and tubulin (Sigma). p-RTK arrays were performed according to the manufacturer's recommendations (Human Phospho-RTK Array Kit, R&D Systems).
Cell lysates for western blotting were made in RIPA (Sigma) with protease inhibitor cocktail (Roche) and phosphatase inhibitor cocktails I and II (Santa Cruz Biotechnology). Western blots were probed with antibodies against p-MEK1/2 (S217/221), total MEK1/2, p-ERK1/2 (T202/Y204), total ERK1/2, PDGFRβ, and EGFR (all from Cell Signaling Technologies), B-RAF and N-RAS (Santa Cruz Biotechnology), pan-RAS (Thermo Scientific) and tubulin (Sigma). p-RTK arrays were performed according to the manufacturer's recommendations (Human Phospho-RTK Array Kit, R&D Systems).
The subject of assay [3] is V600EB-RAF-positive melanomas. Conditions: patients with V600EB-RAF-positive melanomas; cited from earlier work.
Assay [4] relates to ERK signaling (pMEK, pERK). Nature of the assay: Western blot of ERK signaling (pMEK, pERK) in SKMEL-239 parental cells and resistant clones. A general note: Immunoblotting shows a protein as a band on a membrane.
Method: PLX4032 IC50 curves (at 5 days) for the SKMEL-239 parental cell line and five PLX4032-resistant clones. […] Western blot for components of the ERK and AKT signaling pathways in parental and resistant clones (2 μM PLX4032/24 hours). […] Dose-response of pMEK and pERK downregulation at 1 hour to increasing concentrations of PLX4032 in parental and two representative resistant clones (C3 and C5). […] Graphic representation of the chemiluminescent signal intensities from 5D and determination of IC50s for inhibition of MEK phosphorylation by PLX4032 in the parental and C3 and C5 clones.
Western blotting and receptor tyrosine kinase (RTK) arrays. […] The following antibodies were used: p217/p221-MEK (pMEK), p202/p204-ERK (pERK), MEK, ERK, (Cell Signaling), V5 tag (Invitrogen), BRAF, cyclin Flag tag, β-actin (Sigma). […] Membranes were exposed to chemiluminescent reagents and images captured using the ImageQuant LAS 4000 instrument (GE HealthCare).

Sequence of p61 BRAF(V600E) (P15056 with tags, fused parts or gaps DEL169-380/V600E): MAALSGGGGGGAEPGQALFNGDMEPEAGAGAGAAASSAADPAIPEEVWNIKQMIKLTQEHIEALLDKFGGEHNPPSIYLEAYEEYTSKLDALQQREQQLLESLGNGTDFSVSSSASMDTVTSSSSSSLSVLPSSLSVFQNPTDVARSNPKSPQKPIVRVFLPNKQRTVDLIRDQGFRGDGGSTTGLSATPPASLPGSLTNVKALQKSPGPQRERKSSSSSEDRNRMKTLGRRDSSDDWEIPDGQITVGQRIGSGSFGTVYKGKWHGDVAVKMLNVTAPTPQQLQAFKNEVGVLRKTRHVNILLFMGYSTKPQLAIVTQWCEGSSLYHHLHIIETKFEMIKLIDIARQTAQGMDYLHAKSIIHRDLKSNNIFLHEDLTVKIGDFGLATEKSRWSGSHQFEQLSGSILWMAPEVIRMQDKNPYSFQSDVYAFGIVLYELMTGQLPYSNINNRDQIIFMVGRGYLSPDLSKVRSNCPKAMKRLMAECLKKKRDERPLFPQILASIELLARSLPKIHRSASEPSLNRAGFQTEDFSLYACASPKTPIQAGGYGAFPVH
Sequence of p61 BRAF(V600E/R509H) (P15056 with tags, fused parts or gaps DEL169-380/R509H/V600E): as the sequence (P15056 with tags, fused parts or gaps DEL169-380/V600E) above, with R297H counted along it
Sequence of B-RAF(V600E) kinase (P15056 whole entry V600E): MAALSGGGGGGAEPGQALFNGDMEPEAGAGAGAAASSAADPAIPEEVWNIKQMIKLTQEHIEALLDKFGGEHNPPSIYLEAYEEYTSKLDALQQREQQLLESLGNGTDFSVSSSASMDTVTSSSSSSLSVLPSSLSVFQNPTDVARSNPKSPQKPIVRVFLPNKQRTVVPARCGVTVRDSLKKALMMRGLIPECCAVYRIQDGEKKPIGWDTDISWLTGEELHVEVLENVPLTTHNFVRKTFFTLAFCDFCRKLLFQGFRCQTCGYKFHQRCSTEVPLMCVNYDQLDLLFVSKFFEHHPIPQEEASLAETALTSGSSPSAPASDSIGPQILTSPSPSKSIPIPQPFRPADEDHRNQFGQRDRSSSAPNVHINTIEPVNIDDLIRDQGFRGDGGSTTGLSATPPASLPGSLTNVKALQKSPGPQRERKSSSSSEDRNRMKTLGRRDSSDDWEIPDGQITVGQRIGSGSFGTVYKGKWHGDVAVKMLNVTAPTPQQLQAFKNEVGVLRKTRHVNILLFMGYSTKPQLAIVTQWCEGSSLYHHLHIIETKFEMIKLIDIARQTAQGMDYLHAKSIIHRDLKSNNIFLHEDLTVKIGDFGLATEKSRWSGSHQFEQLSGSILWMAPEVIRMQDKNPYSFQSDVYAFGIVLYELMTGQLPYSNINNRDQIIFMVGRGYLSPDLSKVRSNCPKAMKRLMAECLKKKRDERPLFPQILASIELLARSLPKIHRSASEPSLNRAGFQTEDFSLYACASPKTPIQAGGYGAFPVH

`CCCS(=O)(=O)Nc1ccc(F)c(C(=O)c2c[nH]c3ncc(-c4ccc(Cl)cc4)cc23)c1F` [PLX4032]: on B-RAF(V600E) kinase, the “sensitivity of immunoprecipitated B-RAF kinase activities” value is reported as “similarly sensitive”. The “sensitivity of ERK signaling (pMEK, pERK)” value at p61 BRAF(V600E) (293H cells, 2 μM PLX4032 for 1 hour) was “resistant; also recorded: insensitive”. The “inhibition of ERK signaling” value is “failure of PLX4032 to effectively inhibit ERK signaling” on p61 BRAF(V600E) (HT-29 (BRAF(V600E)) colorectal carcinoma cells expressing p61 BRAF(V600E)); “failure of PLX4032 to effectively inhibit ERK signaling” on p61 BRAF(V600E) (parental SKMEL-239 cells expressing p61 BRAF(V600E)); “effectively inhibits” in assay [4] (SKMEL-239 parental, 2 μM PLX4032). Moreover, on p61 BRAF(V600E/R509H), the ERK signaling result is “inhibited”. Besides, in the assay with melanoma tumors, the “Best Response” value is −72% (2×) and −20% and −70% (2×) and −22% and −53% (2×) and −31% (2×) and −60% and −47% and −43% and −25% and −74% and −24% and −37% and −100% and −42% and +8%. The PFS in the assay with melanoma tumors is 464 days and 304 days and 104 days and 161 days and 137 days and 238 days and 212 days and 373 days and 148 days and 299 days and 107 days and 149 days and 126 days and 279 days and 118 days and 241 days and 168 days (2×) and 79 days and 50 days and 106 days. In addition, the “growth sensitivity to vemurafenib treatment” value in the assay with M395 R (M395 R (amplified V600EB-RAF)) is “highly resistant”. Moreover, the “drug sensitivity at high vemurafenib dosing” value in the assay with M395 R (vemurafenib from 1 to 50 µM, 72 h, versus M249 R4) is listed as “highly sensitive”. Besides, in [1], the “vemurafenib resistance conferred by V600EB-RAF over-expression” value was “highly saturable by micromolar concentrations”. Further, the “PLX4032-induced decreases in p-MEK1/2 and p-ERK1/2” value in assay [2] (M229 R5) and in [2] (M238 R1) was “similarly sensitive” in each case. Further, in assay [2] (M249 R4), the “PLX4032-induced MEK/ERK inhibition” value is listed as “strong resistance”. Further, the “p-MEK1/2 and p-ERK1/2 levels” value in [2] (all parental cells (M229, M238, M249)) was “dose-dependent decreases”. Also, the anti-tumor response rate in [3] is recorded as 80%. For the same molecule, in [4] (PLX4032-resistant SKMEL-239 clones), the “sensitivity of ERK signaling to the drug” value is listed as “decreased sensitivity”. In addition, in assay [4] (SKMEL-239 C3 clone, 1 hour), the “IC50 for pMEK inhibition relative to the parental cell line” value is reported as “more than 100 fold”. For the same molecule, in [4] (SKMEL-239 C5 clone, 1 hour), the “pMEK IC50 relative to the parental cell line” value amounted to 4.5 fold.
